Laboratory results: patent US20190069550A1, “HERBICIDAL COMPOSITIONS CONTAINING PYRIDINE CARBOXYLIC ACIDS OR DERIVATIVES THEREOF, WITH PDS AND VLCFA INHIBITORS, OR DERIVATIVES THEREOF” (Dow AgroSciences LLC, priority 2017, published 2019)
“And” between values parts separate entries of the source, which are not always exact repeats. Identical values can stand only once.

How the values were obtained:
Assay type in all cases: in vivo
Details in all cases: 20-22 d
[1] = test system: Abutilon theophrasti (velvetleaf); assay: Postemergence herbicidal activity, greenhouse, ABUTH
Description: (§1) Seeds of the desired test plant species were planted in Sun Gro MetroMix® 360 planting mixture, which typically has a pH of 6.0 to 6.8 and an organic matter content of about 30 percent, in plastic pots with a surface area of 103.2 square centimeters (cm^2). When required to ensure good germination and healthy plants, a fungicide treatment and/or other chemical or physical treatment was applied. The plants were grown for 7-36 days (d) in a greenhouse with an approximate 14-hour (h) photoperiod which was maintained at about 23° C. during the day and 22° C. during the night. Nutrients and water were added on a regular basis and supplemental lighting was provided with overhead metal halide 1000-Watt lamps as necessary. The plants were employed for testing when they reached the second or third true leaf stage.
(§2) Weighed amounts of technical material were dissolved in a volume of 97:3 volume per volume (v/v) acetone/dimethyl sulfoxide (DMSO) to make stock solutions. […] The concentrated stock solutions were diluted with an aqueous mixture of 1.5% v/v of Agri-dex crop oil concentrate to provide the appropriate application rates. […]
(§3) The treated plants and control plants were placed in a greenhouse as described above and watered by sub-irrigation to prevent wash-off of the test compounds. After 20-22 d, the condition of the test plants as compared with that of the control plants was determined visually and scored on a scale of 0 to 100 percent where 0 corresponds to no injury and 100 corresponds to complete kill. The condition of the test plants was compared with that of the control plants as determined visually and scored on a scale of 0 to 100 percent, where 0 corresponds to no injury and 100 corresponds to complete kill. […]
(§4) Compound 1 was formulated as an EC and was combined with phytoene desaturase inhibitor herbicides, very long chain fatty acid inhibitor herbicides, or mixtures thereof, and applied to weeds, and the phytotoxicity of the herbicidal composition was measured. […]

[2] = test system: Amaranthus retroflexus (pigweed); assay: Postemergence herbicidal activity, greenhouse, AMARE
Description: as §1, §2, §3, §4

[3] = test system: Brassica napus (spring rape); assay: Postemergence herbicidal activity, greenhouse, BRSNN
Description: as §1, §2, §3, §4

[4] = test system: Cirsium arvense (thistle); assay: Postemergence herbicidal activity, greenhouse, CIRAR
Description: as §1
(§5) Weighed amounts of technical material were dissolved in a volume of 97:3 volume per volume (v/v) acetone/dimethyl sulfoxide (DMSO) to make stock solutions. […] The concentrated stock solutions were diluted with an aqueous mixture of 1.5% v/v of Agri-dex crop oil concentrate to provide the appropriate application rates. Compound requirements are based upon a 12 milliliter (mL) application volume at a rate of 187 liters per hectare (UJha). Spray solutions of the experimental compound mixtures were prepared by adding the stock solutions to the appropriate amount of dilution solution to form a 12 mL spray solution in two-way combinations. Formulated compounds were applied to the plant material with an overhead Mandel track sprayer equipped with 8002E nozzles calibrated to deliver 187 L/ha over an application area of 0.503 square meters (m^2) at a spray height of 18 inches ([…] (cm)) above average plant canopy. Control plants were sprayed in the same manner with the solvent blank. Application rates for component (a) are in g ae/ha, and application rates for component (b) are in g ai/ha.
as §3, §4

[5] = test system: Chenopodium album L. (common lambsquarters); assay: Postemergence herbicidal activity, greenhouse, CHEAL
Description: as §1, §5, §3, §4

[6] = test system: Cyperus esculentus (nutsedge); assay: Postemergence herbicidal activity, greenhouse, CYPES
Description: When required to ensure good germination and healthy plants, a fungicide treatment and/or other chemical or physical treatment was applied. The plants were grown for 7-36 days (d) in a greenhouse with an approximate 14-hour (h) photoperiod which was maintained at about 23° C. during the day and 22° C. during the night. Nutrients and water were added on a regular basis and supplemental lighting was provided with overhead metal halide 1000-Watt lamps as necessary. The plants were employed for testing when they reached the second or third true leaf stage. Weighed amounts of technical material were dissolved in a volume of 97:3 volume per volume (v/v) acetone/dimethyl sulfoxide (DMSO) to make stock solutions. […] The concentrated stock solutions were diluted with an aqueous mixture of 1.5% v/v of Agri-dex crop oil concentrate to provide the appropriate application rates. Compound requirements are based upon a 12 milliliter (mL) application volume at a rate of 187 liters per hectare (UJha). Spray solutions of the experimental compound mixtures were prepared by adding the stock solutions to the appropriate amount of dilution solution to form a 12 mL spray solution in two-way combinations. […] Control plants were sprayed in the same manner with the solvent blank. Application rates for component (a) are in g ae/ha, and application rates for component (b) are in g ai/ha. The treated plants and control plants were placed in a greenhouse as described above and watered by sub-irrigation to prevent wash-off of the test compounds. […] Colby's equation was used to determine the herbicidal effects expected from the mixtures. Compound 1 was formulated as an EC and was combined with phytoene desaturase inhibitor herbicides, very long chain fatty acid inhibitor herbicides, or mixtures thereof, and applied to weeds, and the phytotoxicity of the herbicidal composition was measured. […]

[7] = test system: Digitaria sanguinalis (large crabgrass); assay: Postemergence herbicidal activity, greenhouse, DIGSA
Description: as §1, with “The plants were employed for testing when they reached the second or third true leaf stage.” left out
as §3

[8] = test system: Echinochloa crus-galli (barnyardgrass); assay: Postemergence herbicidal activity, greenhouse, ECHCG
Description: as §1, §2, §3, §4

[9] = test system: Euphorbia heterophylla (poinsettia); assay: Postemergence herbicidal activity, greenhouse, EPHHL
Description: as §1, §5
The treated plants and control plants were placed in a greenhouse as described above and watered by sub-irrigation to prevent wash-off of the test compounds. After 20-22 d, the condition of the test plants as compared with that of the control plants was determined visually and scored on a scale of 0 to 100 percent where 0 corresponds to no injury and 100 corresponds to complete kill. The condition of the test plants was compared with that of the control plants as determined visually and scored on a scale of 0 to 100 percent, where 0 corresponds to no injury and 100 corresponds to complete kill. Colby's equation was used to determine the herbicidal effects expected from the mixtures.
as §4

[10] = test system: Ipomoea hederacea (ivyleaf morningglory); assay: Postemergence herbicidal activity, greenhouse, IPOHE
Description: as §1, §2, §3, §4

Kochia scoparia (kochia) = assay: Postemergence herbicidal activity, greenhouse, KCHSC
Description: as §1, §2, §3, §4

Oryza sativa (rice) = assay: Postemergence crop injury, greenhouse, ORYSA
Description: as §1, with “The plants were employed for testing when they reached the second or third true leaf stage.” left out
as §3

[11] = test system: Polygonum convolvulus (wild buckwheat); assay: Postemergence herbicidal activity, greenhouse, POLCO
Description: as §1, §2, §3, §4

[12] = test system: Sorghum vulgare (grain sorghum); assay: Postemergence herbicidal activity, greenhouse, SORVU
Description: as §1, §2, §3, §4

[13] = test system: Stellaria media (chickweed); assay: Postemergence herbicidal activity, greenhouse, STEME
Description: as §1, with “The plants were employed for testing when they reached the second or third true leaf stage.” left out
as §3

[14] = test system: Triticum aestivum (winter wheat); assay: Postemergence crop injury, greenhouse, TRZAW
Description: as §1, §2, §3, §4

[15] = test system: Veronica hederifolia (ivyleaf speedwell); assay: Postemergence herbicidal activity, greenhouse, VERHE
Description: as §1, with “The plants were employed for testing when they reached the second or third true leaf stage.” left out
as §3

[16] = test system: Viola tricolor (wild pansy); assay: Postemergence herbicidal activity, greenhouse, VIOTR
Description: as §1, §2, §3, §4

Zea mays (maize/corn) = assay: Postemergence crop injury, greenhouse, ZEAMX
Description: as §1, §2, §3, §4

Nc1c(F)c(-c2ccc3cc[nH]c3c2F)nc(C(=O)O)c1Cl [Compound 1]
% Visual Injury ([1]; 10 g ae/ha): 50%
% Visual Injury ([2]; 5 g ae/ha): 93% and 65%
% Visual Injury ([3]; 5 g ae/ha): 50%
% Visual Injury ([4]; 10 g ae/ha): 60%
% Visual Injury ([5]; 5 g ae/ha): 90% and 80%
% Visual Injury ([5]; 10 g ae/ha): 95%
% Visual Injury ([6]; 5 g ae/ha): 10%
% Visual Injury ([7]; 5 g ae/ha): 0%
% Visual Injury ([8]; 5 g ae/ha): 60%
% Visual Injury ([9]; 5 g ae/ha): 97% and 75%
% Visual Injury ([9]; 10 g ae/ha): 100%
% Visual Injury ([10]; 5 g ae/ha): 20%
% Visual Injury (Kochia scoparia (kochia); 5 g ae/ha): 65%
% Visual Injury (Oryza sativa (rice); 5 g ae/ha): 0%
% Visual Injury ([11]; 5 g ae/ha): 70%
% Visual Injury ([12]; 5 g ae/ha): 60%
% Visual Injury ([13]; 5 g ae/ha): 65%
% Visual Injury ([14]; 5 g ae/ha): 10%
% Visual Injury ([15]; 5 g ae/ha): 40%
% Visual Injury ([16]; 5 g ae/ha): 10% and 5%
% Visual Injury (Zea mays (maize/corn); 5 g ae/ha): 10%

O=C(Nc1ccc(F)cc1F)c1cccnc1Oc1cccc(C(F)(F)F)c1 [Diflufenican, N-(2,4-difluorophenyl)-2-[3-(trifluoromethyl)phenoxy]-3-pyridinecarboxamide]
% Visual Injury ([1]; diflufenican 50 g ai/ha): 0%
% Visual Injury ([3]; diflufenican 50 g ai/ha): 20%
% Visual Injury ([4]; diflufenican 50 g ai/ha): 20%
% Visual Injury ([6]; diflufenican 50 g ai/ha): 0%
% Visual Injury ([7]; diflufenican 50 g ai/ha): 10%
% Visual Injury ([8]; diflufenican 50 g ai/ha): 0%
% Visual Injury ([9]; diflufenican 50 g ai/ha): 10%
% Visual Injury ([10]; diflufenican 50 g ai/ha): 0%
% Visual Injury (Kochia scoparia (kochia); diflufenican 50 g ai/ha): 10%
% Visual Injury (Oryza sativa (rice); diflufenican 50 g ai/ha): 0%
% Visual Injury ([11]; diflufenican 50 g ai/ha): 10%
% Visual Injury ([12]; diflufenican 50 g ai/ha): 0%
% Visual Injury ([14]; diflufenican 50 g ai/ha): 0%
% Visual Injury (Zea mays (maize/corn); diflufenican 50 g ai/ha): 5%

CC(C)N(C(=O)COc1nnc(C(F)(F)F)s1)c1ccc(F)cc1 [Flufenacet, N-(4-fluorophenyl)-N-(1-methylethyl)-2-[[5-(trifluoromethyl)-1,3,4-thiadiazol-2-yl]oxy]acetamide]
% Visual Injury ([1]; flufenacet 60 g ai/ha): 0%
% Visual Injury ([4]; flufenacet 60 g ai/ha): 0%
% Visual Injury ([5]; flufenacet 60 g ai/ha): 10%
% Visual Injury ([9]; flufenacet 60 g ai/ha): 0%

O=C(Nc1ccc(F)cc1)c1cccc(Oc2cccc(C(F)(F)F)c2)n1 [Picolinafen, N-(4-fluorophenyl)-6-[3-(trifluoromethyl)phenoxy]-2-pyridinecarboxamide]
% Visual Injury ([2]; picolinafen 12.5 g ai/ha): 20%
% Visual Injury ([3]; picolinafen 12.5 g ai/ha): 25%
% Visual Injury ([4]; picolinafen 12.5 g ai/ha): 10%
% Visual Injury ([6]; picolinafen 12.5 g ai/ha): 0%
% Visual Injury ([8]; picolinafen 12.5 g ai/ha): 10%
% Visual Injury ([10]; picolinafen 12.5 g ai/ha): 5%
% Visual Injury ([11]; picolinafen 12.5 g ai/ha): 0%
% Visual Injury ([12]; picolinafen 12.5 g ai/ha): 0%
% Visual Injury ([14]; picolinafen 12.5 g ai/ha): 0%
% Visual Injury ([16]; picolinafen 12.5 g ai/ha): 10%
% Visual Injury (Zea mays (maize/corn); picolinafen 12.5 g ai/ha): 5%

Cn1nc(C(F)(F)F)c(CS(=O)(=O)C2=NOC(C)(C)C2)c1OC(F)F [Pyroxasulfone, 3-[[[5-(difluoromethoxy)-1-methyl-3-(trifluoromethyl)-1H-pyrazol-4-yl]methyl]sulfonyl]-4,5-dihydro-5,5-dimethylisoxazole]
% Visual Injury ([2]; pyroxasulfone 100 g ai/ha): 0%
% Visual Injury ([5]; pyroxasulfone 100 g ai/ha): 10%
% Visual Injury ([9]; pyroxasulfone 100 g ai/ha): 0%
% Visual Injury (Kochia scoparia (kochia); pyroxasulfone 100 g ai/ha): 0%
% Visual Injury ([13]; pyroxasulfone 100 g ai/ha): 40%
% Visual Injury ([15]; pyroxasulfone 100 g ai/ha): 0%
% Visual Injury ([16]; pyroxasulfone 100 g ai/ha): 0%
